# Assay results reported in patent US20240300899A1, “A QUINOLONE COMPOUND IN SOLID FORMS AND PROCESSES FOR THE PREPARATION THEREOF” (ZYDUS LIFESCIENCES LIMITED, priority 2021, published 2024).
# Experiments:
# Format in all cases: physicochemical
# [1] = Hygroscopicity test as per EP general texts 5.11; details: 24-hour exposure over saturated ammonium chloride solution, 25±1° C., 80±2% relative humidity
# Experimental: Hygroscopicity Data: The test for hygroscopicity was performed as per EP general texts 5.11 page no 565. The test was performed by calculating the difference in weights, after 24-hour upon expose over a saturated solution of ammonium chloride at 25±1° C. and 80±2% relative humidity.
# [2] = Stability data on storage (HPLC purity, polymorphic form, impurity content)
# Experimental: The crystalline form of compound of Formula (I) is characterized by X-ray powder diffraction (XRPD) pattern. In particular, the solid form of compound of Formula (I) is characterized by X-ray powder diffraction pattern obtained using CuKα1 radiation on a PANalytical X'Pert Pro or equivalent X-ray powder diffraction instrument. Particularly, the X-ray powder diffraction spectrum was measured under the following experimental conditions: The HPLC purity of the compound of Formula (I) was calculated using following method: Instrument Name: Waters Alliance e2695 HPLC system or equivalent [table] [table] [table]
# [3] = Powder properties (bulk density, tapped density, angle of repose)
# [4] = 25° C. ± 2° C. and 60% ± 5% Relative Humidity, 1 month
# [5] = 25° C. ± 2° C. and 60% ± 5% Relative Humidity, 15 days
# [6] = 25° C. ± 2° C. and 60% ± 5% Relative Humidity, Initial
# [7] = 30° C. ± 2° C. and 65% ± 5% Relative Humidity, 1 month
# [8] = 30° C. ± 2° C. and 65% ± 5% Relative Humidity, 15 days
# [9] = 30° C. ± 2° C. and 65% ± 5% Relative Humidity, Initial
# [10] = 40° C. ± 2° C. and 75% ± 5 % Relative Humidity, 1 month
# [11] = 40° C. ± 2° C. and 75% ± 5 % Relative Humidity, 15 days
# [12] = 40° C. ± 2° C. and 75% ± 5 % Relative Humidity, Initial
compound,measurement,setting,value
"O=C(O)CNC(=O)c1c(O)c2ccccc2n(OCC2CC2)c1=O [Example-1, (1-(cyclopropylmethoxy)-4-hydroxy-2-oxo-1,2-dihydroquinoline-3-carbonyl) glycine]",Hygroscopicity result,[1],Non-hygroscopic
same,Increase in mass (hygroscopicity),[1],less than 0.2%
same,Content of Compound of Formula D,[2]; [4],0.04%
same,HPLC Purity,[2]; [4],99.91%
same,Polymorphic form,[2]; [4],Unchanged
same,Content of Compound of Formula D,[2]; [5],0.05%
same,HPLC Purity,[2]; [5],99.87%
same,Polymorphic form,[2]; [5],Unchanged
same,Content of Compound of Formula D,[2]; [6],0.04%
same,HPLC Purity,[2]; [6],99.9%
same,Content of Compound of Formula D,[2]; [7],0.04%
same,HPLC Purity,[2]; [7],99.91%
same,Polymorphic form,[2]; [7],Unchanged
same,Content of Compound of Formula D,[2]; [8],0.05%
same,HPLC Purity,[2]; [8],99.83%
same,Polymorphic form,[2]; [8],Unchanged
same,Content of Compound of Formula D,[2]; [9],0.04%
same,HPLC Purity,[2]; [9],99.9%
same,Content of Compound of Formula D,[2]; [10],0.04%
same,HPLC Purity,[2]; [10],99.92%
same,Polymorphic form,[2]; [10],Unchanged
same,Content of Compound of Formula D,[2]; [11],0.05%
same,HPLC Purity,[2]; [11],99.85%
same,Polymorphic form,[2]; [11],Unchanged
same,Content of Compound of Formula D,[2]; [12],0.04%
same,HPLC Purity,[2]; [12],99.9%
same,Angle of Repose,[3],30.6 °
same,Bulk Density,[3],0.61 g/mL
same,Tapped Density,[3],0.73 g/mL
